Reference: ChEMBL document CHEMBL1857833, “Screening and optimization of specific chemical series against human African Trypanosomiasis (HAT)”
Values after ≈ are worked out from the molar mass of the structure shown. Values joined by “and” are separate entries in the source; they are usually repeats but may differ in a detail not shown here. Equal entries are not always repeated.

Assays:
[1] = DNDI: Cytotoxicity against L929 mouse fibroblasts, CYTO-SP, 24 hour; type: toxicity, cell-based; conditions: mouse, L929 mouse fibroblasts
Trypanosoma brucei = assay: DNDI: Inhibition of Human African Trypanosomiasis, SBRI 427, in vitro; type: functional, organism-based
[2] = DNDI: Cytotoxicity against L929 mouse fibroblasts, 72 hour.; type: toxicity, cell-based; conditions: mouse, L929 mouse fibroblasts
[3] = Trypanosoma brucei, SBRI 427, read-out: IC50

Structure (SMILES) | IC50 (Trypanosoma brucei; [3]) [µg/mL] | IC50 (Trypanosoma brucei) | IC50 at 24 h [1] [µg/mL] | IC50 at 72 h [2] [µg/mL]
CCCCCC(C)NCc1coc(-c2cc(F)ccc2F)n1 (configuration not stated) | 2.69 (≈ 8.72 µM) |  | 36 (≈ 117 µM) | 13.2 (≈ 42.7 µM)
CCOc1ccc(-c2nc(CN[C@]34C[C@H]5C[C@H](C[C@H](C5)C3)C4)co2)cc1 | > 5 |  | > 50 | 28.4 (≈ 80.5 µM)
Clc1ccc(-c2nc(CNC3CCCC3)co2)cc1 | 4.78 (≈ 17.3 µM) |  | > 50 | 12.9 (≈ 46.8 µM)
CCCOc1ccc(-c2nc(CNC3CCCCCC3)co2)cc1 | 1.25 (≈ 3.81 µM) |  | 15.8 (≈ 48.1 µM) | < 3.13
C[C@@H](NCc1coc(-c2ccc(Cl)cc2)n1)C1CCCCC1 | 1.74 (≈ 5.46 µM) |  | > 50 | < 3.13
CCCOc1ccc(-c2nc(CNC3[C@H]4C[C@@H]5C[C@@H](C[C@H]3C5)C4)co2)cc1 (some centres not stated) | 0.69 (≈ 1.88 µM) |  | > 50 | 3.67 (≈ 10 µM)
CCCCCC(C)NCc1coc(-c2cccs2)n1 (configuration not stated) | 3.83 (≈ 13.8 µM) |  | > 50 | 13.5 (≈ 48.6 µM)
CCCCCC(C)NCc1coc(-c2cccc(F)c2F)n1 (configuration not stated) | 4.08 (≈ 13.2 µM) |  | > 50 | 10.7 (≈ 34.5 µM)
Clc1ccc(-c2nc(CNC3CC4CCC3C4)co2)cc1 (configuration not stated) | 2.81 (≈ 9.28 µM) |  | 40.7 (≈ 134 µM) | 3.47 (≈ 11.5 µM)
CCCCCC(C)NCc1coc(-c2ccc(C(F)(F)F)cc2)n1 (configuration not stated) | 1.63 (≈ 4.79 µM) |  | > 50 | 3.55 (≈ 10.4 µM)
Clc1ccsc1-c1nc(CNC2CCCCCC2)co1 | > 5 |  | > 50 | 11.8 (≈ 38.1 µM)
Clc1ccc(-c2nc(CNC3CCCCC3)co2)cc1 | 1.86 (≈ 6.4 µM) |  | > 50 | 6.85 (≈ 23.6 µM)
CCCCCC(C)NCc1coc(-c2cccc(OC(F)(F)F)c2)n1 (configuration not stated) | 1.45 (≈ 4.07 µM) |  | > 50 | 6.48 (≈ 18.2 µM)
CCCC(CCC)NCc1coc(-c2ccc(Cl)cc2)n1 | 2.08 (≈ 6.78 µM) |  | 38.4 (≈ 125 µM) | 5.72 (≈ 18.6 µM)
CCCOc1ccc(-c2nc(CNC[C@@H]3CC[C@H]4C[C@@H]3C4(C)C)co2)cc1 | 0.74 (≈ 2.01 µM) |  | 16 (≈ 43.5 µM) | < 3.13
CCCCc1ccc(-c2nc(C)co2)cc1 | > 5 |  | > 50 | 42.1 (≈ 195 µM)
CCCCCC(C)NCc1coc(-c2ccc(F)c(F)c2)n1 (configuration not stated) | 1.74 (≈ 5.64 µM) |  | 37 (≈ 120 µM) | 6.34 (≈ 20.6 µM)
CCCOc1ccc(-c2nc(CNC3CC(C)CC(C)(C)C3)co2)cc1 (configuration not stated) | 1.37 (≈ 3.84 µM) |  | 15.9 (≈ 44.5 µM) | < 3.13
CC1(C)[C@H]2CC[C@@H](CNCc3coc(-c4sccc4Cl)n3)[C@@H]1C2 | > 5 |  | > 50 | > 50
CCCCc1ccc(-c2nc(C(C)(C)C)co2)cc1 | > 5 |  | > 50 | 28.7 (≈ 112 µM)
CCCCCC(C)NCc1coc(-c2ccc(F)cc2)n1 (configuration not stated) | 2.71 (≈ 9.33 µM) |  | 17 (≈ 58.5 µM) | 7.1 (≈ 24.5 µM)

Structure (SMILES) | IC50 (Trypanosoma brucei; [3]) [µg/mL] | IC50 (Trypanosoma brucei) | IC50 at 24 h [1] [µg/mL] | IC50 at 72 h [2] [µg/mL]
CCCCCC(C)NCc1coc(-c2cc(F)cc(F)c2)n1 (configuration not stated) | 1.71 (≈ 5.55 µM) |  | 42 (≈ 136 µM) | 7.08 (≈ 23 µM)
CCN(CC)Cc1coc(-c2ccc(Cl)cc2)n1 | > 5 |  | > 50 | 39.5 (≈ 149 µM)
CCCC(CCC)NCc1coc(-c2ccc(OCC)cc2)n1 |  |  | > 50 | 6.37 (≈ 20.1 µM)
C[C@@H]1[C@H]2C[C@@H](C[C@H]1NCc1coc(-c3sccc3Cl)n1)C2(C)C | > 5 |  | > 50 | > 50
CCCCCC(C)NCc1coc(-c2cccc(F)c2)n1 (configuration not stated) | 2.14 (≈ 7.37 µM) |  | 19 (≈ 65.4 µM) | 7.19 (≈ 24.8 µM)
CCCCCC(C)NCc1coc(-c2ccc(SC(F)(F)F)cc2)n1 (configuration not stated) | 1.12 (≈ 3.01 µM) |  | > 50 | 3.64 (≈ 9.77 µM)
CCCCC[C@@H](C)NCc1coc(-c2ccc(Cl)cc2)n1 | 0.92 (≈ 3 µM) |  | > 50 | 3.18 (≈ 10.4 µM)
Clc1ccsc1-c1nc(CNC2[C@H]3C[C@@H]4C[C@@H](C[C@H]2C4)C3)co1 (some centres not stated) | > 5 |  | > 50 | 10.6 (≈ 30.3 µM)
CCCCCC(C)NCc1coc(-c2cccc(C)c2)n1 (configuration not stated) | 3.33 (≈ 11.6 µM) |  | 16 (≈ 55.9 µM) | 7.13 (≈ 24.9 µM)
C[C@H](NCc1coc(-c2ccc(Cl)cc2)n1)C1CCCCC1 | 2.29 (≈ 7.18 µM) |  | > 50 | < 3.13
CC1CC(NCc2coc(-c3ccc(C(F)(F)F)cc3)n2)CC(C)(C)C1 (configuration not stated) | 1.07 (≈ 2.92 µM) | 0.54 µg/mL (≈ 1.47 µM) | > 50 | 
Cc1cc(C)cc(Oc2ccc(/C(=N/O)NCC(C)(C)C)cn2)c1 | 0.77 (≈ 2.35 µM) |  | > 50 | 
Cc1ccc(Oc2ncccc2/C(=N/O)NCC2CC2)c2c1CCC2 | 0.21 (≈ 0.622 µM) |  | > 50 | 
O/N=C(\NC1CCCC1)c1cccnc1Oc1c(F)cccc1F | 0.23 (≈ 0.69 µM) |  | > 50 | 
O/N=C(\NC1CCCCC1)c1cccc(F)c1 | > 5 |  | > 50 | 
O/N=C(\NC1CCCCC1)c1ccnc(Oc2cccc3c2CCCC3)c1 | 0.83 (≈ 2.27 µM) |  | 48.4 (≈ 132 µM) | 
Cc1ccc(Oc2ncccc2/C(=N/O)NC2CCC(C)CC2)c2c1CCC2 (configuration not stated) | 0.81 (≈ 2.13 µM) |  | 32.5 (≈ 85.5 µM) | 
O/N=C(\NC1CCC1)c1cccnc1OCC1CCCCC1 | 0.64 (≈ 2.11 µM) |  | > 50 | 
CC(C)COc1ncccc1/C(=N/O)NCC(C)(C)C | 1.12 (≈ 4.01 µM) |  | > 50 | 
Cc1cc(C)cc(Oc2ccc(/C(=N/O)NC3CCCC3)cn2)c1 | 0.59 (≈ 1.81 µM) |  | < 50 | 

Continued, in another order:

IC50 (Trypanosoma brucei; [3]) [µg/mL] | IC50 (Trypanosoma brucei) | Structure (SMILES) | IC50 at 24 h [1] [µg/mL] | IC50 at 72 h [2] [µg/mL]
1.14 (≈ 3.54 µM) |  | CCCCCC(C)NCc1coc(-c2cccc3ccccc23)n1 (configuration not stated) | 16 (≈ 49.6 µM) | 6.56 (≈ 20.3 µM)
2.19 (≈ 9.21 µM) |  | CCOc1ccc(-c2nc(CCl)co2)cc1 | > 5 | 25.9 (≈ 109 µM)
> 5 |  | CCCCCC(C)NC(=O)c1coc(-c2ccccc2)n1 (configuration not stated) | > 50 | 27.2 (≈ 95 µM)
0.81 (≈ 2.88 µM) |  | CCCCCC(C)NCc1cccc(-c2ccccc2)c1 (configuration not stated) | > 50 | 3.39 (≈ 12 µM)
5 (≈ 18.4 µM) |  | CCCCCC(C)NCc1cc(-c2ccccc2)on1 (configuration not stated) | 32 (≈ 117 µM) | 12.9 (≈ 47.3 µM)
> 5 |  | O=C(O)c1coc(-c2ccccc2)n1 | > 50 | > 50
1.35 (≈ 4.8 µM) |  | CCCCCC(C)NCc1ccccc1-c1ccccc1 (configuration not stated) | > 50 | 4.68 (≈ 16.6 µM)
1.02 (≈ 3.13 µM) |  | CC1(C)[C@H]2CC[C@@H](CNCc3ccc(-c4ccccc4)s3)[C@@H]1C2 | > 50 | 6.63 (≈ 20.4 µM)
2.42 (≈ 7.89 µM) |  | CCCCCC(C)NCc1coc(-c2ccccc2Cl)n1 (configuration not stated) | 17 (≈ 55.4 µM) | 7.17 (≈ 23.4 µM)
4.1 (≈ 14.3 µM) |  | CCCCCC(C)NCc1coc(-c2ccccc2C)n1 (configuration not stated) | 16 (≈ 55.9 µM) | 3.6 (≈ 12.6 µM)
> 5 |  | CCCCCC(C)OCc1coc(-c2ccccc2)n1 (configuration not stated) | > 50 | 27.7 (≈ 101 µM)
> 5 |  | CCOc1ccc(-c2nc(CNCc3ccccc3)co2)cc1 | > 50 | 18.1 (≈ 58.6 µM)
> 5 |  | CCOc1ccc(-c2nc(CN(C)Cc3coc(-c4ccc(OCC)cc4)n3)co2)cc1 | > 50 | > 50
> 5 |  | CCCCc1ccc(-c2nc(-c3ccccc3)co2)cc1 | > 50 | 26.6 (≈ 96 µM)
1.09 (≈ 3.38 µM) |  | CCCCCC(C)NCc1coc(-c2ccc3ccccc3c2)n1 (configuration not stated) | 17 (≈ 52.7 µM) | 5.65 (≈ 17.5 µM)
1.11 (≈ 3.11 µM) |  | CCCCCC(C)NCc1coc(-c2ccc(OC(F)(F)F)cc2)n1 (configuration not stated) | > 50 | 3.56 (≈ 9.99 µM)
1.12 (≈ 2.76 µM) |  | CCOc1ccccc1CN/C(=N\O)c1cccnc1Oc1ccc(C(C)C)cc1 | 38.6 (≈ 95.1 µM) | 
1.07 (≈ 2.96 µM) |  | CCc1ccc(Oc2ncccc2/C(=N/O)NCc2ccccc2C)cc1 | > 50 | 
> 5 |  | COc1cccc(/C(N)=N/O)c1 | > 50 | 
> 5 |  | OC/C(=N\O)c1ccccc1 | > 50 | 

IC50 (Trypanosoma brucei; [3]) [µg/mL] | IC50 (Trypanosoma brucei) | Structure (SMILES) | IC50 at 24 h [1] [µg/mL] | IC50 at 72 h [2] [µg/mL]
> 5 |  | N#Cc1cccnc1Oc1ccccc1Br | > 50 | 
> 5 |  | COc1cccc(/C(=N/O)N(C(=O)C(C)C)C(=O)C(C)C)c1 | > 50 | 
0.49 (≈ 1.4 µM) |  | CCC(C)(C)N/C(=N\O)c1cccnc1Oc1ccc2ccccc2c1 | > 50 | 
> 5 |  | COc1ccc(/C=N/Oc2ccccc2)cc1 | > 50 | 
0.98 (≈ 2.53 µM) |  | CC(C)c1ccc(Oc2ncccc2/C(=N/O)NC2CCc3ccccc32)cc1 (configuration not stated) | 45.1 (≈ 116 µM) | 
1.1 (≈ 2.87 µM) |  | COc1cccc(CN/C(=N\O)c2cccnc2Oc2ccc(Cl)cc2)c1 | > 50 | 
1.08 (≈ 2.87 µM) |  | Cc1ccc2cccc(Oc3ccc(/C(=N/O)NC4CCCCC4)cn3)c2n1 | > 50 | 
1.2 (≈ 3.47 µM) |  | O/N=C(\NC1CCCCC1)c1ccc(Oc2ccc(Cl)cc2)nc1 | 30.8 (≈ 89.1 µM) | 
0.62 (≈ 1.86 µM) |  | O/N=C(\NCC1CC1)c1cccnc1Oc1ccc2ccccc2c1 | > 50 | 
5 (≈ 14.3 µM) |  | C[C@@H]1[C@H]2C[C@@H](C[C@H]1N/C(=N\O)c1ccccc1-c1ccccc1)C2(C)C | 17 (≈ 48.8 µM) | 
 | 0.53 µg/mL and < 0.19 µg/mL | CSc1ccccc1Oc1ncccc1/C(=N/O)NCC1CC1 | > 50 | 
> 5 |  | COc1ccc(C(=O)Cc2ccccc2)cc1 | > 50 | 
1.12 (≈ 3.55 µM) |  | CCc1ccc(Oc2ncccc2/C(=N/O)NCCOC)cc1 | > 50 | 
> 5 |  | COc1cc(C)ccc1Oc1ncccc1C(=N)N | > 50 | 
> 5 |  | N#Cc1cccnc1Oc1ccccc1 | > 50 | 
> 5 |  | COc1cccc(-c2noc(C(C)C)n2)c1 | > 50 | 
0.46 (≈ 1.25 µM) |  | CC(C)Oc1ccccc1Oc1ncccc1/C(=N/O)NC1CCCCC1 | > 50 | 
0.13 (≈ 0.324 µM) |  | O/N=C(/c1cccnc1Oc1ccc2ccccc2c1)N1CCC2CCCCC2C1 (configuration not stated) | > 50 | 
1.08 (≈ 2.82 µM) |  | Cc1cc(C)cc(CN/C(=N\O)c2cccnc2Oc2c(F)cccc2F)c1 | > 50 | 
